The record followed here is patent publication US6348435B1, “Substituted 2,4-diamino-1,3,5-triazine and their use as herbicides” (Bayer Aktiengesellschaft, priority 1997, dated 2002).

For data set [1], the system named is weeds. In words: Post-emergence test, summary on weeds. Format: in vivo. The note with it: result in words. The method, then:
(§1) Solvent: 5 parts by weight of acetone
(§2) Emulsifier: 1 part by weight of alkylaryl polyglycol ether
(§3) To produce a suitable preparation of active compound, 1 part by weight of active compound is mixed with the stated amount of solvent, the stated amount of emulsifier is added and the concentrate is diluted with water to the desired concentration.
(§4) Test plants having a height of 5-15 cm are sprayed with the preparation of active compound such that the particular amounts of active compound desired are applied per unit area. The concentration of the spray liquor is chosen so that the particular amounts of active compound desired are applied in 1000 l of water/ha.
(§5) After three weeks, the degree of damage to the plants is rated in % damage in comparison with the development of the untreated control.
(§6) 0%=no effect (like untreated control)

Data set [2] concerns Setaria. In words: Post-emergence test/greenhouse. The format is in vivo. The note with it: 504 h, 1000 g of ai./ha, plants 5-15 cm sprayed, rated after three weeks vs untreated control, 0%=no effect, 100%=total destruction, read-out: degree of damage to the plants, Setaria. The method, then: as §1, §2, §3, §4, §5, §6
In data set [3] the test system is Sinapis. Put plainly: Post-emergence test/greenhouse. The format is in vivo. The note with it: 504 h, 1000 g of ai./ha, plants 5-15 cm sprayed, rated after three weeks vs untreated control, 0%=no effect, 100%=total destruction, read-out: degree of damage to the plants, Sinapis. The protocol:
as §1, §2, §3, §4, §5, §6

Data set [4] deals with Maize. In words: Post-emergence test/greenhouse. The format is in vivo. Particulars: Zea mays, 504 h, 1000 g of ai./ha, plants 5-15 cm sprayed, rated after three weeks vs untreated control, 0%=no effect, 100%=total destruction, read-out: degree of damage to the plants, Maize. The method, then:
as §1, §2, §3, §4, §5, §6

The subject of data set [5] is Abutilon. In words: Post-emergence test/greenhouse. The format is in vivo. The note with it: 504 h, 1000 g of ai./ha, plants 5-15 cm sprayed, rated after three weeks vs untreated control, 0%=no effect, 100%=total destruction, read-out: degree of damage to the plants, Abutilon. The protocol:
as §1, §2, §3, §4, §5, §6

The subject of data set [6] is Amaranthus. In words: Post-emergence test/greenhouse. The format is in vivo. Particulars: 504 h, 1000 g of ai./ha, plants 5-15 cm sprayed, rated after three weeks vs untreated control, 0%=no effect, 100%=total destruction, read-out: degree of damage to the plants, Amaranthus. The protocol:
as §1, §2, §3, §4, §5, §6

Data set [7] relates to Xanthium. In words: Post-emergence test/greenhouse. Particulars: 1000 g of ai./ha, plants 5-15 cm sprayed, rated after three weeks vs untreated control, 0%=no effect, 100%=total destruction. The format is in vivo. The method, then:
as §1, §2, §3, §4, §5, §6

Data set [8] concerns Maize. In words: Pre-emergence test/greenhouse. The format is in vivo. The note with it: for tolerance by crop plants, such as, for example, maize: pre-emergence test, result in words; for degree of damage to the plants, Maize: pre-emergence, 1000 g of ai./ha, rated after three weeks vs untreated control, 0%=no effect, 100%=total destruction. The protocol:
(§7) Pre-emergence Test Solvent: 5 parts by weight of acetone Emulsifier: 1 part by weight of alkylaryl polyglycol ether To produce a suitable preparation of active compound, 1 part by weight of active compound is mixed with the stated amount of solvent, the stated amount of emulsifier is added and the concentrate is diluted with water to the desired concentration. Seeds of the test plants are sown in normal soil. After about 24 hours, the soil is sprayed with the preparation of active compound such that the particular amounts of active compound desired are applied per unit area. The concentration of the spray liquor is chosen so that the particular amounts of active compound desired are applied in 1000 l of water/ha. After three weeks, the degree of damage to the plants is rated in % damage in comparison with the development of the untreated control. The figures denote: 0%=no effect (like untreated control) 100%=total destruction

Data set [9] deals with weeds. In words: Pre-emergence test, summary on weeds. The note with it: result in words. The format is in vivo. The method, then:
as §7

Data set [10] has as its system Setaria. Put plainly: Pre-emergence test/greenhouse. Format: in vivo. The note with it: 1000 g of ai./ha, rated after three weeks vs untreated control, 0%=no effect, 100%=total destruction. The protocol:
as §7

Data set [11] deals with Sinapis. In words: Pre-emergence test/greenhouse. The format is in vivo. The note with it: 1000 g of ai./ha, rated after three weeks vs untreated control, 0%=no effect, 100%=total destruction. The protocol:
as §7

The test system of data set [12] is Galium. Put plainly: Pre-emergence test/greenhouse. The note with it: 1000 g of ai./ha, rated after three weeks vs untreated control, 0%=no effect, 100%=total destruction. The format is in vivo. The method, then:
as §7

Data set [13] deals with Amaranthus. In words: Pre-emergence test/greenhouse. The format is in vivo. The note with it: 1000 g of ai./ha, rated after three weeks vs untreated control, 0%=no effect, 100%=total destruction. The protocol:
as §7

By melting point is commonly meant the temperature of the solid-liquid transition. As for `CC(Nc1nc(N)nc(C(Cl)Cl)n1)c1cccs1` (stereo not shown) [Example 5], the melting point came out at 135 °C. In data set [1], the action against weeds result was “strong action”.
With `CCc1nc(N)nc(NC(C)c2cccs2)n1` (stereo not shown) [Example 1, 2-amino-4-ethyl-6-(1-thien-2-yl-ethylamino)-1,3,5-triazine], the action against weeds entry in data set [1] was “strong action”.
In the case of `CCC(Nc1nc(N)nc(C(C)Cl)n1)c1cccs1` (stereo not shown) [drawing 228], the pest or weed control at 1000 g/ha in data set [2], in data set [3], in data set [5] and in data set [6] was 100% each time. The plant injury at 1000 g/ha in data set [4] stood at 30%.
On to `CCC(Nc1nc(N)nc(C(Cl)Cl)n1)c1cccs1` (stereo not shown) [drawing 237], for which the pest or weed control at 1000 g/ha in data set [2], in data set [3] and in data set [6] was 100% in each case. For the same compound, the plant injury at 1000 g/ha in [4] is 10%. Also, in data set [7], the “degree of damage to the plants, Xanthium” value is 80%.
For `CCC(Nc1nc(NC(C)=O)nc(C(Cl)Cl)n1)c1cccs1` (stereo not shown) [Example 20], the melting point stood at 131 °C. Also, the action against weeds result in data set [1] was “strong action”.
As to `CCC(Nc1nc(N)nc(C(C)F)n1)c1cccs1` (stereo not shown) [Example 15], the “tolerance by crop plants, such as, for example, maize” value in data set [8] is “tolerated very well”. The action against weeds entry in data set [9] and in data set [1] was “strong action” throughout.
Regarding `CCC(Nc1nc(NC(C)=O)nc(C(C)(Cl)Cl)n1)c1cccs1` (stereo not shown) [drawing 238], the pest or weed control at 1000 g/ha in data set [2], in data set [3] and in data set [6] was 100% throughout. The “degree of damage to the plants, Xanthium” value in data set [7] is given as 100%.
Regarding `CCC(Nc1nc(N)nc(C(C)F)n1)c1cccs1` (stereo not shown) [drawing 229], the pest or weed control at 1000 g/ha in [2], in data set [3], in data set [5] and in data set [6] was 100% throughout. The plant injury at 1000 g/ha in data set [4] is 0%.
Regarding `CCc1nc(N)nc(NC(CC)c2cccs2)n1` (stereo not shown) [Example 11], the action against weeds entry in data set [1] was “strong action”.
Take `CCC(Nc1nc(NC(C)=O)nc(C(C)Cl)n1)c1cccs1` (stereo not shown) [Example 21]: in data set [1], the action against weeds result was “strong action”.
On to `CCC(Nc1nc(NC(C)=O)nc(C(C)F)n1)c1cccs1` (stereo not shown) [Example 22], for which the “tolerance by crop plants, such as, for example, maize” value in [8] is reported as “tolerated very well”. The action against weeds result in data set [9] and in data set [1] was “strong action” in each case.
As for `CCc1nc(NC(C)=O)nc(NC(CC)c2cccs2)n1` (stereo not shown) [drawing 231], the pest or weed control at 1000 g/ha in [2], in data set [3], in data set [5] and in data set [6] was 100% each time. Also, the plant injury at 1000 g/ha in [4] stood at 20%.
As to `CCC(Nc1nc(N)nc(C(Cl)Cl)n1)c1cccs1` (stereo not shown) [Example 13], the action against weeds result in data set [1] is listed as “strong action”.
As for `CC(Cl)c1nc(N)nc(NC(C)c2cccs2)n1` (stereo not shown) [drawing 236], in data set [4], the plant injury at 1000 g/ha worked out at 0%. Also, the pest or weed control at 1000 g/ha in data set [5] and in data set [6] was 100% each time. In data set [7], the “degree of damage to the plants, Xanthium” value stood at 100%.
As to `CCC(Nc1nc(NC(C)=O)nc(C(C)F)n1)c1cccs1` (stereo not shown) [drawing 224], the “degree of damage to the plants, Setaria” value in [10] is reported as 100%. In addition, the “degree of damage to the plants, Sinapis” value in data set [11] was found to be 100%. Moreover, the “degree of damage to the plants, Maize” value in data set [8] amounted to 0%. Further, the “degree of damage to the plants, Galium” value in [12] was found to be 100%. In data set [13], the “degree of damage to the plants, Amaranthus” value came to 95%.
On to `CCC(Nc1nc(N)nc(C(F)C(F)(F)F)n1)c1cccs1` (stereo not shown) [drawing 230], for which the pest or weed control at 1000 g/ha in data set [2], in data set [3], in data set [5] and in [6] was 100% throughout. In [4], the plant injury at 1000 g/ha worked out at 10%.
Consider `CC(Nc1nc(N)nc(C(Cl)Cl)n1)c1cccs1` (stereo not shown) [drawing 234], for which the pest or weed control at 1000 g/ha amounted to 90% in [2], 100% in [3], 100% in data set [5] and 100% in [6].
In the case of `CC(Cl)c1nc(N)nc(NC(C)c2cccs2)n1` (stereo not shown) [Example 6], the melting point is 125 °C. In [1], the action against weeds result is “strong action”.
On the same counts, the results for `CCc1nc(NC(C)=O)nc(NC(C)c2cccs2)n1` (stereo not shown) [Example 2, 2-acetylamino-4-ethyl-6-(1-thien-2-yl-ethyl-amino)-1,3,5-triazine] are 153 °C and “strong action”.
As for `CCc1nc(NC(C)=O)nc(NC(C)c2cccs2)n1` (stereo not shown) [drawing 226], the pest or weed control at 1000 g/ha in data set [2] stood at 90%; in data set [3], 100%; in data set [5], 100%; in [6] it was 100%. Besides, the plant injury at 1000 g/ha in data set [4] worked out at 0%.
For `CCC(Nc1nc(NC(C)=O)nc(C(Cl)Cl)n1)c1cccs1` (stereo not shown) [drawing 232], the pest or weed control at 1000 g/ha in [2], in data set [3], in [5] and in data set [6] was 100% each time. Moreover, the plant injury at 1000 g/ha in data set [4] was determined as 0%.
Consider `CCc1nc(N)nc(NC(CC)c2cccs2)n1` (stereo not shown) [drawing 227], for which the pest or weed control at 1000 g/ha in [2], in data set [3], in [5] and in data set [6] was 100% in each case. In addition, in [4], the plant injury at 1000 g/ha turned out to be 30%.
Take `CCC(Nc1nc(N)nc(C(C)F)n1)c1cccs1` (stereo not shown) [drawing 223]: in [10], the “degree of damage to the plants, Setaria” value is listed as 90%. Moreover, the “degree of damage to the plants, Maize” value in [8] was determined as 0%. Further, the “degree of damage to the plants, Galium” value in [12] is 100%. For the same compound, in [13], the “degree of damage to the plants, Amaranthus” value is on record as 100%.
Take `CCC(Nc1nc(N)nc(C(F)C(F)(F)F)n1)c1cccs1` (stereo not shown) [Example 16]: the action against weeds result in data set [1] is on record as “strong action”.
In the case of `CCC(Nc1nc(NC(C)=O)nc(C(C)F)n1)c1cccs1` (stereo not shown) [drawing 235], the pest or weed control at 1000 g/ha in data set [2], in data set [3], in data set [5] and in [6] was 100% each time.
Regarding `CCC(Nc1nc(NC(C)=O)nc(C(C)Cl)n1)c1cccs1` (stereo not shown) [drawing 233], the pest or weed control at 1000 g/ha in data set [2], in data set [3], in [5] and in data set [6] was 100% each time. The plant injury at 1000 g/ha in data set [4] was 0%.
For the compound `CCC(Nc1nc(NC(C)=O)nc(C(C)(Cl)Cl)n1)c1cccs1` (stereo not shown) [Example 24], the melting point came out at 113 °C. The action against weeds result in [1] is reported as “strong action”.
With `CCC(Nc1nc(N)nc(C(C)Cl)n1)c1cccs1` (stereo not shown) [Example 14], in [1], the action against weeds result is recorded as “strong action”.
As for `CCc1nc(N)nc(NC(C)c2cccs2)n1` (stereo not shown) [drawing 225], the pest or weed control at 1000 g/ha in data set [3], in data set [5] and in data set [6] was 100% each time. Also, the plant injury at 1000 g/ha in data set [4] amounted to 30%.
Regarding `CCc1nc(NC(C)=O)nc(NC(CC)c2cccs2)n1` (stereo not shown) [Example 18], the action against weeds entry in data set [1] is “strong action”.
